Where no end group is shown, it is not given here.
Experiments:
[1] = system: S. aureus ATCC 29213; format: cell-based; conditions: ATCC 29213
[2] = system: E. coli ATCC strain 25922; assay: Minimal Inhibitory Concentration, microtiter broth dilution; format: cell-based; conditions: ATCC strain 25922
In short: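 Broth microdilution per NCCLS M7-T2: final peptide levels 0.25 to 256 μg/ml (twofold steps), inoculum 1-5×10^5 CFUs/ml in full-strength Mueller Hinton broth. MIC read as lowest concentration leaving the well clear after 16-20 hours at 37° C.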

[3] = MTD and LD50, single intravenous administration; format: in vivo, mice
Protocol: Determinations of a maximal tolerated dose (MTD) of a single intravenous (i.v.) administration or intraperitoneal (i.p.) administration of MSI-344 or MSI-1857 in 100 CD-1®BR mice were done. The MTD of a single intravenous (i.v.) administration was 10 mg/kg for MSI-344 and 60 mg/kg for MSI-1857. The MTD of a single intraperitoneal (i.p.) administration was less than 20 mg/kg for MSI-344 and between 50 and 100 mg/kg for MSI-1857.
To determine estimates of MTDs and LD50s of MSI-344 and MSI-1857 administered intravenously or intraperitoneally as a single bolus in mice.
A 5 mg/mL solution of MSI-344 was made in saline (0.9% sodium chloride injection USP, Abbott, North Chicago, Ill.) corrected for peptide content. Solutions of MSI-344 at concentrations of 4, 3, 2, 1.5, 1, and 0.5 mg/mL were made by diluting the 5 mg/mL solution using saline as diluent. (Errors were made in solution preparation of the 4, 3, and 2 mg/mL solutions and results from groups with animals doses with these solutions, i.e. groups 12, 13, and 14, were eliminated from study analysis). A 20 mg/mL solution of MSI-1857 was made in saline. Solutions of MSI-1857 at concentrations of 15, 10, 8, 6, and 5 mg/mL were made by diluting the 20 mg/mL solution using saline as diluent.
Another 5 mg/mL solution of MSI-344 was made in saline corrected for peptide content. Solutions of 4, 3 and 2 mg/mL were made by diluting the 5 mg/mL solution using saline as diluent. A 15 mg/mL solution of MSI-1857 in saline was made corrected for peptide content. A 10 mg/mL solution was made by diluting the 15 mg/mL solution with saline.
Mice (four mice per dose group) were intravenously or intraperitoneally administered a single bolus of MSI-344 or MSI-1857 using an injection volume of 10 mL/kg of the appropriate solution concentration. If the first two mice in a group died immediately (within 10 secs) after administration of a dose then no other mice injected with this dose of this compound (for ethical reasons). Survival was monitored daily for at least eight days post-administration. Study designs are presented in Tables IX and X. Toxicity Study # 262 was a supplement to Toxicity Study #261.

[4] = Tox Study #261 group 2, 20 mg/kg IV, 2 injected
[5] = Tox Study #261 group 3, 15 mg/kg IV, 2 injected
[6] = Tox Study #261 group 4, 10 mg/kg IV, 4 injected
[7] = Tox Study #261 group 5, 5 mg/kg IV, 4 injected

GIGKFLKKAKKFGKAFVKILKK [MSI-344]
128 mg/L: MIC S. aureus ATCC 29213 [1]
10 mg/kg: MTD ([3]; mouse, in vivo, iv, CD-1 mice, read-out: MTD of a single intravenous (i.v.) administration)
0: No. of Survivors Day 1 [3, 4] | No. of Survivors Day 2 [3, 4] | No. of Survivors Day 3 [3, 4] | No. of Survivors Day 4 [3, 4] | No. of Survivors Day 5 [3, 4] | No. of Survivors Day 6 [3, 4] | No. of Survivors Day 7 [3, 4] | No. of Survivors Day 8 [3, 4] | No. of Survivors Day 1 [3, 5] | No. of Survivors Day 2 [3, 5] | No. of Survivors Day 3 [3, 5] | No. of Survivors Day 4 [3, 5] | No. of Survivors Day 5 [3, 5] | No. of Survivors Day 6 [3, 5] | No. of Survivors Day 7 [3, 5] | No. of Survivors Day 8 [3, 5]
8 mg/L: MIC E. coli ATCC 25922 [2]
4: No. of Survivors Day 1 [3, 6] | No. of Survivors Day 2 [3, 6] | No. of Survivors Day 3 [3, 6] | No. of Survivors Day 4 [3, 6] | No. of Survivors Day 5 [3, 6] | No. of Survivors Day 6 [3, 6] | No. of Survivors Day 7 [3, 6] | No. of Survivors Day 8 [3, 6] | No. of Survivors Day 1 [3, 7] | No. of Survivors Day 2 [3, 7] | No. of Survivors Day 3 [3, 7] | No. of Survivors Day 4 [3, 7] | No. of Survivors Day 5 [3, 7] | No. of Survivors Day 6 [3, 7] | No. of Survivors Day 7 [3, 7] | No. of Survivors Day 8 [3, 7]
12.5 mg/kg: LD50 ([3]; mouse, in vivo, iv, CD-1 mice, estimated from dose response curves)
